# Patent US8377943B2, “2,4-diaminopyrimidine derivates as PTK2-inhibitors for the treatment of abnormal cell growth” (Boehringer Ingelheim International GmbH, priority 2008, dated 2013)
# How the values were obtained:
# PTK2 = target: T1, PTK2 (Homo sapiens, UniProt Q05397); assay: PTK2 Enzyme Test (DELFIA assay, poly-Glu-Tyr substrate); format: biochemical; conditions: active PTK2 enzyme, 50 μM ATP in ATP Mix, 1 h pre-incubation
# T1 construct: purchased Invitrogen PV3832
# Protocol: This test uses active PTK2 enzyme (Invitrogen Code PV3832) and poly-Glu-Tyr (4:1, Sigma P-0275) as the kinase substrate. The kinase activity is detected by means of the phosphorylation of the substrate in a DELFIA™ assay. The phosphorylated substrate is detected with the Europium-labelled phosphotyrosine antibody PY20 (Perkin Elmer, No.: AD0038).
# In order to determine concentration-activity curves with PTK2-inhibitors the compounds are serially diluted in 10% DMSO/H2O and 10 μL of each dilution are dispensed per well in a 96-well microtitre plate (clear U-shaped base plate, Greiner No. 650101) (the inhibitors are tested in duplicates) and mixed with 10 μL/well of PTK2 kinase (0.01 μg/well). PTK2 kinase is diluted accordingly beforehand with kinase dilution buffer (20 mM TRIS/HCl pH 7.5, 0.1 mM EDTA, 0.1 mM EGTA, 0.286 mM sodium orthovanadate, 10% glycerol with the addition of freshly prepared BSA (fraction V 1 mg/mL) and DTT (1 mM)). The test compound and the PTK2 kinase are pre-incubated for 1 h at RT and shaken at 500 rpm. Then 20 μL ATP Mix (30 mM TRIS/HCl pH 7.5, 0.02% Brij, 0.2 mM sodium orthovanadate, 10 mM magnesium acetate, 0.1 mM EGTA, 1× Phosphatase Inhibitor Cocktail 1 (Sigma, No.: P2850), 50 μM ATP (Sigma, No.: A3377; 15 mM stock solution)) are added. The reaction is started by the addition of 10 μL/well of poly (Glu,Tyr) substrate (25 μg/well poly (Glu,Tyr), 0.05 μg/well biotinylated poly (Glu,Tyr) dissolved in 250 mM TRIS/HCl pH 7.5, 9 mM DTT)—the final concentration of DMSO is 2%. After 1 h kinase reaction (the plates are shaken at 500 rpm), the reaction is stopped by the addition of 12 μL/well of 100 mM EDTA, pH 8. And shaken for a further 5 min at RT (500 U/min).
# 55 μL of the reaction mixture are transferred into a streptavidin plate (Strepta Well High Bind (transparent, 96-well) made by Roche, No.: 11989685001) and incubated for 1 h at RT (shaking at 500 rpm). Then the microtitre plate is washed three times with 200 μL/well D-PBS (Invitrogen, No.:14190). 100 μL of 1:2000 diluted DELFIA Eu-N1 Anti-Phosphotyrosine PY20 antibody (Perkin Elmer, No.: AD0038, 1:2000 diluted in DELFIA test buffer (Perkin Elmer, No.: 1244-111)) is then added and it is incubated for 1 h at RT (shaking at 500 rpm). Then the plate is washed three times with 200 μL/well DELFIA washing buffer (Perkin Elmer, No.: 1244-114), 200 μL/well strengthening solution (Perkin Elmer, No.: 1244-105) is added and the whole is incubated for 10 min at RT (shaking at 300 rpm).
# The time-delayed europium fluorescence is then measured in a microtitre plate reader (Victor, Perkin Elmer). The positive control consists of wells that contain solvent (2% DMSO in test buffer) and display uninhibited kinase activity. Wells that contain test buffer instead of enzyme act as a control for the background kinase activity.
# The IC50 values are determined from concentration-activity analyses by iterative calculation using a sigmoidal curve analysis algorithm (FIFTY, based on GraphPAD Prism Version 3.03) with a variable Hill coefficient.
# [1] = target: T2, PTK2-phosphorylation at tyrosine 397 (pY397) (Homo sapiens, UniProt Q05397); assay: Phospho-PTK2 (pY397) Assay in PC-3 cells; format: cell-based; conditions: PC-3 prostate carcinoma cells, 2 h incubation; read-out: PC3pPTK2 Y397 EC50
# T2 construct: endogenous in cells; host or cells: PC-3 (ATCC CRL-1435)
# Protocol: This cellular test is used to determine the influence of PTK2-inhibitors on the state of the PTK2-phosphorylation at tyrosine 397 (pY397).
# PC-3 cells (prostate carcinoma, ATCC CRL-1435) are grown in cell culture flasks (175 cm^2) with F12 Kaighn's Medium (Gibco, No.: 21127) with the addition of 10% foetal calf serum (Invitrogen, No.: 16000-044). The cultures are incubated in the incubator at 37° C. and 5% CO2 and run twice a week.
# For the test, 2×10^4 cells pro well/[…] are plated out in 96-well microtitre plates (Costar, No.: 3598) and incubated overnight in the incubator at 37° C. and 5% CO2. The test compounds (10 μL from serial dilution) are added the next day. The concentration of the test compounds usually covers a range of 50 μM and 0.8 nM. The test compounds (stock solution: 10 mM in 100% DMSO) are diluted in medium/medium 10% DMSO such that the final concentration is 1% DMSO. The cells are then incubated in the incubator at 37° C. and 5% CO2 for 2 h. Then the culture supernatant is removed and the cells are fixed with 150 μL 4% formaldehyde in D-PBS for 20 min at RT. The cell lawn is washed five times with 200 μL 0.1% Triton X-100 in D-PBS for 5 min in each case and then incubated for 90 min with blocking buffer (5% skimmed milk powder (Maresi Fixmilch) in TBST (25 mM Tris/HCl, pH 8.0, 150 mM NaCl, 0.05% Tween 20). The blocking buffer is replaced by 50 μL of the first antibody anti-phospho PTK2 [pY397] rabbit monoclonal (Invitrogen/Biosource, No.: 44-625G), which is diluted 1:200 in blocking buffer. For control purposes, alternatively a PTK2 [total] antibody (clone 4.47 mouse monoclonal, Upstate, No.: 05-537), diluted 1:400 in blocking buffer is used. This incubation is carried out at 4° C. overnight. Then the cell lawn is washed five times with 100 μL of 0.1% Tween in D-PBS for 5 min in each case and 50 μL/well of second antibody are added. In order to detect bound phospho-PTK2 [pY397] antibody a goat-anti-rabbit antibody is used which is coupled with horseradish peroxidase (Dako, No.: P0448; 1:500 dilution in blocking buffer). In order to detect bound PTK2 [total]-antibodies a rabbit-anti-mouse antibody is used, which is also coupled with horseradish peroxidase (Dako, No.: PO161; 1:1000 dilution in blocking buffer). This incubation is carried out for 1 h at RT with gentle shaking. The cell lawn is then again washed five times with 100 μL of 0.1% Tween in D-PBS for 5 min in each case. […] The EC50 values are determined from concentration-activity analyses by iterative calculation with the aid of a sigmoidal curve analysis algorithm (FIFTY, based on GraphPAD Prism Version 3.03) with a variable Hill coefficient.
# T2 sequence (Q05397 whole entry): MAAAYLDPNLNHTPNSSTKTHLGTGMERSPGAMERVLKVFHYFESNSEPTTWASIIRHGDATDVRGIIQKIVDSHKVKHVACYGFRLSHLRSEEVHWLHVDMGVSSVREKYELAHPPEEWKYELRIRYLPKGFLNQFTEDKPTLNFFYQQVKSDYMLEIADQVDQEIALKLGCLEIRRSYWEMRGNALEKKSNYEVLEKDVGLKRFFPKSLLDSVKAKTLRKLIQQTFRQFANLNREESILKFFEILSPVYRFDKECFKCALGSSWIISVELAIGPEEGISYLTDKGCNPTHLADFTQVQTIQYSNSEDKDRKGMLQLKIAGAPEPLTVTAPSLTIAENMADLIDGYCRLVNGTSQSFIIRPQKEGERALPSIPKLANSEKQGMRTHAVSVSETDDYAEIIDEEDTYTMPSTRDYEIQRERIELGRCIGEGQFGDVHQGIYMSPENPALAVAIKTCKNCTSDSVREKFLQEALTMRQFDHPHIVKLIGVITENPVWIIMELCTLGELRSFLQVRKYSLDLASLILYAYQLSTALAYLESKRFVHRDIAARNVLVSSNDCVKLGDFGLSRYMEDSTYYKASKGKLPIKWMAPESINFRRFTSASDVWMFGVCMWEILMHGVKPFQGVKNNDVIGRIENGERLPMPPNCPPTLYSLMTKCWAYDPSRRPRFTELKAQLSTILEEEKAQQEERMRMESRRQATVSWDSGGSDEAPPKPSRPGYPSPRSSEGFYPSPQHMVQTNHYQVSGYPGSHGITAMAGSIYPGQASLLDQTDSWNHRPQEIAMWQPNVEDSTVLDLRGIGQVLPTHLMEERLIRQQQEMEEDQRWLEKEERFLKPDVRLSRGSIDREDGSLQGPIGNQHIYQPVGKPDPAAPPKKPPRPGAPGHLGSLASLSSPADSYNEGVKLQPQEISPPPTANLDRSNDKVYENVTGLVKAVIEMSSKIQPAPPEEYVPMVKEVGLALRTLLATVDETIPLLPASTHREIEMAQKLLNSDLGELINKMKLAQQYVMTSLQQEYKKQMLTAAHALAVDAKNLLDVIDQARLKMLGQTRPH
# T1 sequence (Q05397 whole entry): as above
IC50 (PTK2) [nM],EC50 [1] [nM],Structure (SMILES)
4,0.27,COc1cc(C(=O)NC2CCC(NS(C)(=O)=O)CC2)ccc1Nc1ncc(C(F)(F)F)c(NCc2ccc(C)cc2N(C)S(C)(=O)=O)n1 (stereo not shown) [Example 27]
2,0.29,COc1ccc(CNc2nc(Nc3cc(F)c(C(=O)N[C@H]4CCN(C)C4)cc3OC)ncc2C(F)(F)F)c(N(C)S(C)(=O)=O)c1 [Example 29]
4,0.29,COc1cc(C(=O)NC2CCN(CC3CC3)CC2)ccc1Nc1ncc(C(F)(F)F)c(NCc2ccc(C)cc2N(C)S(C)(=O)=O)n1 [Example 30]
1,0.29,COc1cc(C(=O)NC2CCC(N(C)C(C)C)CC2)ccc1Nc1ncc(C(F)(F)F)c(NCc2ccc(C)cc2N(C)S(C)(=O)=O)n1 (stereo not shown) [Example 31]
4,0.3,COc1cc(N2CCN(C3COC3)CC2)ccc1Nc1ncc(C(F)(F)F)c(NCc2ccc(C)cc2N(C)S(C)(=O)=O)n1 [Example 32]
2,0.3,COc1cc(N2CCN(CC(=O)N(C)C)CC2)ccc1Nc1ncc(C(F)(F)F)c(NCc2ccc(C)cc2N(C)S(C)(=O)=O)n1 [Example 33]
3,0.31,COc1cc(C(N)=O)c(Br)cc1Nc1ncc(C(F)(F)F)c(NCc2ccc(C)cc2N(C)S(C)(=O)=O)n1 [Example 34]
3,0.31,COc1cc(CNC2CCOCC2)ccc1Nc1ncc(C(F)(F)F)c(NCc2ccc(C)cc2N(C)S(C)(=O)=O)n1 [Example 35]
2,0.32,COc1cc(C(=O)N[C@@H]2CCN(C)C2)c(F)cc1Nc1ncc(C(F)(F)F)c(NCc2ccc(C)cc2N(C)S(C)(=O)=O)n1 [Example 36]
4,0.35,COc1cc(C(=O)NC2CCN(C3CC3)CC2)ccc1Nc1ncc(C(F)(F)F)c(NCc2ccc(C)cc2N(C)S(C)(=O)=O)n1 [Example 38]
1,0.37,COc1ccc(CNc2nc(Nc3cc(F)c(C(=O)NC4CCN(C)CC4)cc3OC)ncc2C(F)(F)F)c(N(C)S(C)(=O)=O)c1 [Example 40]
2,0.39,COc1ccc(CNc2nc(Nc3cc(F)c(C(=O)N[C@@H]4CCN(C)C4)cc3OC)ncc2C(F)(F)F)c(N(C)S(C)(=O)=O)c1 [Example 41]
4,0.39,COc1cc(N2CCN(CC(=O)N3CCOCC3)CC2)ccc1Nc1ncc(C(F)(F)F)c(NCc2ccc(C)cc2N(C)S(C)(=O)=O)n1 [Example 42]
2,0.4,COc1cc(C(=O)NC2CCN(C)CC2)c(F)cc1Nc1ncc(C(F)(F)F)c(NCc2ccc(C)cc2N(C)S(C)(=O)=O)n1 [Example 43]
2,0.42,COc1cc(C(=O)NC2CCN(C3CCOCC3)CC2)ccc1Nc1ncc(C(F)(F)F)c(NCc2ccc(C)cc2N(C)S(C)(=O)=O)n1 [Example 44]
3,0.44,CCN1CCC[C@H]1CNC(=O)c1ccc(Nc2ncc(C(F)(F)F)c(NCc3ccc(C)cc3N(C)S(C)(=O)=O)n2)c(OC)c1 [Example 45]
6,0.5,COc1cc(C(=O)N[C@H]2CCCN(C3CCCC3)C2)ccc1Nc1ncc(C(F)(F)F)c(NCc2ccc(C)cc2N(C)S(C)(=O)=O)n1 [Example 47]
4,0.51,COc1cc(C(=O)NC2CCC(NC(C)=O)CC2)ccc1Nc1ncc(C(F)(F)F)c(NCc2ccc(C)cc2N(C)S(C)(=O)=O)n1 (stereo not shown) [Example 48]
4,0.51,COc1cc(C(=O)NC2CCN3CCCC3C2)ccc1Nc1ncc(C(F)(F)F)c(NCc2ccc(C)cc2N(C)S(C)(=O)=O)n1 (stereo not shown) [Example 49]
2,0.52,CCc1cc(C(=O)NC2CCN(C)CC2)ccc1Nc1ncc(C(F)(F)F)c(NCc2ccc(C)cc2N(C)S(C)(=O)=O)n1 [Example 50]
1,0.53,COc1cc(C(=O)NC2CCC(N(C)C)CC2)ccc1Nc1ncc(C(F)(F)F)c(NCc2ccc(C)cc2N(C)S(C)(=O)=O)n1 (stereo not shown) [Example 51]
1,0.54,COc1cc(C(=O)NC2CCN(C)CC2)ccc1Nc1ncc(C(F)(F)F)c(NCc2ccc(F)cc2N(C)S(C)(=O)=O)n1 [Example 52]
5,0.54,COc1cc(C(=O)N[C@H]2CCCN(C3CCOCC3)C2)ccc1Nc1ncc(C(F)(F)F)c(NCc2ccc(C)cc2N(C)S(C)(=O)=O)n1 [Example 53]
3,0.55,CNC(=O)c1cc(OC)c(Nc2ncc(C(F)(F)F)c(NCc3ccc(C)cc3N(C)S(C)(=O)=O)n2)cc1C [Example 54]
11,0.56,COc1cc(C(=O)NC2CCN(c3ccccc3)CC2)ccc1Nc1ncc(C(F)(F)F)c(NCc2ccc(C)cc2N(C)S(C)(=O)=O)n1 [Example 55]
2,0.56,COc1cc(CN2CCCC2)ccc1Nc1ncc(C(F)(F)F)c(NCc2ccc(C)cc2N(C)S(C)(=O)=O)n1 [Example 56]
2,0.57,COc1ccc(CNc2nc(Nc3ccc(C(=O)N[C@H]4CC[C@H](N5CCOCC5)CC4)cc3OC)ncc2C(F)(F)F)c(N(C)S(C)(=O)=O)c1 [Example 57]
3,0.59,COc1cc(C(=O)N[C@@H]2CCN(C)C2)c(Cl)cc1Nc1ncc(C(F)(F)F)c(NCc2ccc(C)cc2N(C)S(C)(=O)=O)n1 [Example 58]

Structure (SMILES),IC50 (PTK2) [nM],EC50 [1] [nM]
COc1cc(C(=O)N[C@H]2CN3CCC2CC3)ccc1Nc1ncc(C(F)(F)F)c(NCc2ccc(C)cc2N(C)S(C)(=O)=O)n1 [Example 28],4,0.27
